Test system: recombinant NL-Rluc virus
Assay: Inhibition of HIV replication (NL-RLuc virus in MT-2 cells, luciferase readout)
Format: cell-based
Details: Human immunodeficiency virus 1, MT2, 120 h, 5 days of incubation, 10% FBS

| SMILES | EC50 |
| --- | --- |
| Cc1nc2cc3nn2c(c1[C@H](OC(C)(C)C)C(=O)O)N1CCC(C)(/C=C/CCCOc2ccc(Cl)cc2-c2cccc-3c2)CC1 [Example 45, (2S)-2-(tert-Butoxy)-2-[(25E)-17-chloro-4,27-dimethyl-21-oxa-1,5,7,8-tetraazahexacyclo[25.2.2.1^6,^9.1^10,^14.0^2,^7.0^15,^20]tritriaconta-2,4,6(33),8,10(32),11,13,15(20),16,18,25-undecaen-3-yl]acetic acid] | 33 nM |
| Cc1nc2cc3nn2c(c1[C@H](OC(C)(C)C)C(=O)O)N1CCC(C)(CC1)OCCCCCc1ncccc1-c1cccc-3c1 [Example 46, (2S)-2-(tert-Butoxy)-2-{4,27-dimethyl-26-oxa-1,5,7,8,19-pentaazahexacyclo[25.2.2.1^6,^9.1^10,^14.0^2,^7.0^15,^20]tritriaconta-2,4,6(33),8,10(32),11,13,15(20),16,18-decaen-3-yl}acetic acid] | 10 nM |
| Cc1nc2cc3nn2c(c1[C@H](OC(C)(C)C)C(=O)O)N1CCC(C)(CC1)OC/C=C\COc1cc(F)ccc1-c1cccc-3c1 [Example 47, (2S)-2-(tert-Butoxy)-2-[(23Z)-18-fluoro-4,2,7-dimethyl-21,26-dioxa-1,5,7,8-tetraazahexacyclo[25.2.2.1^6,^9.1^10,^14.0^2,^7.0^15,^20]tritriaconta-2,4,6(33),8,10(32),11,13,15(20),16,18,23-undecaen-3-yl]acetic acid] | 14 nM |
| Cc1nc2cc3nn2c(c1[C@H](OC(C)(C)C)C(=O)O)N1CCC(C)(CC1)OC/C=C/COc1cc(F)ccc1-c1cccc-3c1 [Example 48, (2S)-2-(tert-Butoxy)-2-[(23E)-18-fluoro-4,2,7-dimethyl-21,26-dioxa-1,5,7,8-tetraazahexacyclo[25.2.2.1^6,^9.1^10,^14.0^2,^7.0^15,^20]tritriaconta-2,4,6(33),8,10(32),11,13,15(20),16,18,23-undecaen-3-yl]acetic acid] | 11 nM |
| Cc1nc2cc3nn2c(c1[C@H](OC(C)(C)C)C(=O)O)N1CCC(C)(CC1)OCCCCOc1cc(F)ccc1-c1cccc-3c1 [Example 49, (2S)-2-(tert-Butoxy)-2-{18-fluoro-4,27-dimethyl-21,26-dioxa-1,5,7,8-tetraazahexacyclo[25.2.2.1^6,^9.1^10,^14.0^2,^7.0^15,^20]tritriaconta-2,4,6(33),8,10(32),11,13,15(20),16,18-decaen-3-yl}acetic acid] | 9 nM |
| Cc1nc2cc3nn2c(c1[C@H](OC(C)(C)C)C(=O)O)N1CCC(C)(CC/C=C/CCc2ccncc2-c2cccc-3c2)CC1 [Example 50, (2S)-2-(tert-Butoxy)-2-[(23E)-4,27-dimethyl-1,5,7,8,17-pentaazahexacyclo[25.2.2.1^6,^9.1^10,^14.0^2,^7.0^15,^20]tritriaconta-2,4,6(33),8,10(32),11,13,15(20),16,18,23-undecaen-3-yl]acetic acid] | 6 nM |
| Cc1nc2cc3nn2c(c1[C@H](OC(C)(C)C)C(=O)O)N1CCC(C)(CC/C=C\CCc2ccncc2-c2cccc-3c2)CC1 [Example 51, (2S)-2-(tert-Butoxy)-2-[(23Z)-4,27-dimethyl-1,5,7,8,17-pentaazahexacyclo[25.2.2.1^6,^9.1^10,^14.0^2,^7.0^15,^20]tritriaconta-2,4,6(33),8,10(32),11,13,15(20),16,18,23-undecaen-3-yl]acetic acid] | 6 nM |
| Cc1nc2cc3nn2c(c1[C@H](OC(C)(C)C)C(=O)O)N1CCC(C)(CCCCCCc2ccncc2-c2cccc-3c2)CC1 [Example 52, (2S)-2-(tert-Butoxy)-2-{4,27-dimethyl-1,5,7,8,17-pentaazahexacyclo[25.2.2.1^6,^9.1^10,^14.0^2,^7.0^15,^20]tritriaconta-2,4,6(33),8,10(32),11,13,15(20),16,18-decaen-3-yl}acetic acid] | 5 nM |
| Cc1ccc2c(c1)-c1cccc(c1)-c1cc3nc(C)c([C@H](OC(C)(C)C)C(=O)O)c(n3n1)N1CCC(C)(CC1)OC/C=C/C[C@H](C)O2 [Example 53, (2S)-2-(tert-Butoxy)-2-[(22S,^24E)-4,17,22,28-tetramethyl-21,27-dioxa-1,5,7,8-tetraazahexacyclo[26.2.2.1^6,^9.1^10,^14.0^2,^7.0^15,^20]tetratriaconta-2,4,6(34),8,10(33),11,13,15(20),16,18,24-undecaen-3-yl]acetic acid] | 10 nM |
| Cc1ccc2c(c1)-c1cccc(c1)-c1cc3nc(C)c([C@H](OC(C)(C)C)C(=O)O)c(n3n1)N1CCC(C)(CC1)OC/C=C\C[C@H](C)O2 [Example 54, (2S)-2-(tert-Butoxy)-2-[(22S,24Z)-4,17,22,28-tetramethyl-21,27-dioxa-1,5,7,8-tetraazahexacyclo[26.2.2.1^6,^9.1^10,^14.0^2,^7.0^15,^20]tetratriaconta-2,4,6(34),8,10(33),11,13,15(20),16,18,24-undecaen-3-yl]acetic acid] | 130 nM |
| Cc1ccc2c(c1)-c1cccc(c1)-c1cc3nc(C)c([C@H](OC(C)(C)C)C(=O)O)c(n3n1)N1CCC(C)(CC1)OCCCC[C@H](C)O2 [Example 55, (2S)-2-(tert-Butoxy)-2-[(22S)-4,17,22,28-tetramethyl-21,27-dioxa-1,5,7,8-tetraazahexacyclo[26.2.2.1^6,^9.1^10,^14.0^2,^7.0^15,^20]tetratriaconta-2,4,6(34), 8, 10(33), 11, 13, 15 (20),16,18-decaen-3-yl]acetic acid] | 14 nM |
| Cc1nc2cc3nn2c(c1[C@H](OC(C)(C)C)C(=O)O)N1CCC(C)(CC1)OCC=C[C@@H](C)Oc1ccncc1-c1cccc-3c1 [Example 56, (2S)-2-(tert-Butoxy)-2-[(22R)-4,22,27-trimethyl-21,26-dioxa-1,5,7,8,17-pentaazahexacyclo[25.2.2.1^6,^9.1^10,^14.0^2,^7.0^15,^20]tritriaconta-2,4,6(33),8,10(32), 11, 13, 15 (20),16,18,23-undecaen-3-yl]acetic acid] | 351 nM |
| Cc1nc2cc3nn2c(c1[C@H](OC(C)(C)C)C(=O)O)N1CCC(C)(CC1)OCC=C[C@H](C)Oc1ccncc1-c1cccc-3c1 [Example 57, (2S)-2-(tert-Butoxy)-2-[(22S)-4,22,27-trimethyl-21,26-dioxa-1,5,7,8,17-pentaazahexacyclo[25.2.2.1^6,^9.1^10,^14.0^2,^7.0^15,^20]tritriaconta-2,4,6(33),8,10(32), 11, 13, 15(20),16,18,23-undecaen-3-yl]acetic acid] | 300 nM |
| Cc1ccc2c(c1)-c1cccc(c1)-c1cc3nc(C)c([C@H](OC(C)(C)C)C(=O)O)c(n3n1)N1CCC(C)(CC1)OCC=C[C@@H](C)O2 [Example 58, (2S)-2-(tert-Butoxy)-2-[(22R)-4,17,22,2,7-tetramethyl-21,26-dioxa-1,5,7,8-tetraazahexacyclo[25.2.2.1^6,^9.1^10,^14.0^2,^7.0^15,^20]tritriaconta-2,4,6(33),8,10(32),11,13,15(20),16,18,23-undecaen-3-yl]acetic acid] | 74 nM |
| Cc1ccc2c(c1)-c1cccc(c1)-c1cc3nc(C)c([C@H](OC(C)(C)C)C(=O)O)c(n3n1)N1CCC(C)(CC1)OCC=C[C@H](C)O2 [Example 59, (2S)-2-(tert-Butoxy)-2-[(22S)-4,17,22,27-tetramethyl-21,26-dioxa-1,5,7,8-tetraazahexacyclo[25.2.2.1^6,^9.1^10,^14.0^2,^7.0^15,^20]tritriaconta-2,4,6(33),8,10(32),11,13,15(20),16,18,23-undecaen-3-yl]acetic acid] | 8 nM |
| Cc1ccc2c(c1)-c1cccc(c1)-c1cc3nc(C)c([C@H](OC(C)(C)C)C(=O)O)c(n3n1)N1CCC(C)(CC1)OCCC[C@@H](C)O2 [Example 60, (2S)-2-(tert-Butoxy)-2-[(22R)-4,17,22,2,7-tetramethyl-21,26-dioxa-1,5,7,8-tetraazahexacyclo[25.2.2.1^6,^9.1^10,^14.0^2,^7.0^15,^20]tritriaconta-2,4,6(33),8,10(32),11,13,15(20),16,18-decaen-3-yl]acetic acid] | 84 nM |
| Cc1ccc2c(c1)-c1cccc(c1)-c1cc3nc(C)c([C@H](OC(C)(C)C)C(=O)O)c(n3n1)N1CCC(C)(CC1)OCCC[C@H](C)O2 [Example 61, (2S)-2-(tert-Butoxy)-2-[(22S)-4,17,22,27-tetramethyl-21,26-dioxa-1,5,7,8-tetraazahexacyclo[25.2.2.1^6,^9.1^10,^14.0^2,^7.0^15,^20]tritriaconta-2,4,6(33),8,10(32),11,13,15(20),16,18-decaen-3-yl]acetic acid] | 10 nM |
| Cc1nc2cc3nn2c(c1[C@H](OC(C)(C)C)C(=O)O)N1CCC(C)(CC1)OCC=CCOc1ccc(F)cc1-c1cccc-3c1 [Example 62] | 7 nM |
| Cc1nc2cc3nn2c(c1[C@H](OC(C)(C)C)C(=O)O)N1CCC(C)(CC1)OCCCCOc1ccc(F)cc1-c1cccc-3c1 [Example 63, (2S)-2-(tert-Butoxy)-2-{17-fluoro-4,27-dimethyl-21,26-dioxa-1,5,7,8-tetraazahexacyclo[25.2.2.1^6,^9.1^10,^14.0^2,^7.0^15,^20]tritriaconta-2,4,6(33),8,10(32),11,13,15(20),16,18-decaen-3-yl}acetic acid] | 7 nM |
| Cc1ccc2c(c1)-c1cccc(c1)-c1cc3nc(C)c([C@H](OC(C)(C)C)C(=O)O)c(n3n1)N1CCC(C)(CC1)OCC=CCC[C@H](C)O2 [Example 64, (2S)-2-(tert-Butoxy)-2-[(22S)-4,17,22,29-tetramethyl-21,28-dioxa-1,5,7,8-tetraazahexacyclo[27.2.2.1^6,^9.1^10,^14.0^2,^7.0^15,^20]pentatriaconta-2,4,6(35),8,10(34), 11, 13, 15(20),16,18,25-undecaen-3-yl]acetic acid] | 26 nM |
| Cc1cc2c(cc1Cl)O[C@@H](C)CC=CCOC1(C)CCN(CC1)c1c([C@H](OC(C)(C)C)C(=O)O)c(C)nc3cc(nn13)-c1cccc-2c1 [Example 66, (2S)-2-(tert-Butoxy)-2-[(22S)-18-chloro-4,17,22,28-tetramethyl-21,27-dioxa-1,5,7,8-tetraazahexacyclo[26.2.2.1^6,^9.1^10,^14.0^2,^7.0^15,^20]tetratriaconta-2,4,6(34),8,10(33), 11, 13, 15(20),16,18,24-undecaen-3-yl]acetic acid] | 43 nM |
